The assay has as its target T1, human full-length MKNK1 (Homo sapiens, UniProt Q9BUB5, T385D).
T1 construct: GST (N); purchased Carna Biosciences 02-145; host or cells: insect cells (baculovirus expression system)
As to the kind of experiment: MKNK1 kinase high ATP assay (TR-FRET). Format: biochemical. As to the method:
MKNK1 Kinase High ATP Assay
MKNK1-inhibitory activity at high ATP of compounds of the present invention after their preincubation with MKNK1 was quantified employing the TR-FRET-based MKNK1 high ATP assay as described in the following paragraphs.
As substrate for the kinase reaction the biotinylated peptide biotin-Ahx-[…] (C-terminus in amide form) was used, which can be purchased e.g. from the company Biosyntan (Berlin-Buch, Germany).
For the assay 50 nL of a 100 fold concentrated solution of the test compound in DMSO was pipetted into a black low volume 384 well microtiter plate (Greiner Bio-One, Frickenhausen, Germany), 2 μL of a solution of MKNK1 in aqueous assay buffer [50 mM HEPES pH 7.5, 5 mM MgCl2, 1.0 mM dithiothreitol, 0.005% (v/v) Nonidet-P40 (Sigma)] was added and the mixture was incubated for 15 min at 22° C. to allow pre-binding of the test compounds to the enzyme before the start of the kinase reaction. Then the kinase reaction was started by the addition of 3 μL of a solution of adenosine-tri-phosphate (ATP, 3.3 mM=>final conc. in the 5 μL assay volume is 2 mM) and substrate (0.1 μM=>final conc. in the 5 μL assay volume is 0.06 μM) in assay buffer and the resulting mixture was incubated for a reaction time of 30 min at 22° C. The concentration of MKNK1 was adjusted depending of the activity of the enzyme lot and was chosen appropriate to have the assay in the linear range, typical concentrations were in the range of 0.003 μg/mL. The reaction was stopped by the addition of 5 μL of a solution of TR-FRET detection reagents (5 nM streptavidine-XL665 [Cisbio Bioassays, Codolet, France] and 1 nM anti-ribosomal protein S6 (pSer236)-antibody from Invitrogen [#44921G] and 1 nM LANCE EU-W1024 labeled ProteinG [Perkin-Elmer, product no. AD0071]) in an aqueous EDTA-solution (100 mM EDTA, 0.1% (w/v) bovine serum albumin in 50 mM HEPES pH 7.5).
The resulting mixture was incubated for 1 h at 22° C. to allow the formation of complex between the phosphorylated biotinylated peptide and the detection reagents. Subsequently the amount of phosphorylated substrate was evaluated by measurement of the resonance energy transfer from the Eu-chelate to the streptavidine-XL. Therefore, the fluorescence emissions at 620 nm and 665 nm after excitation at 350 nm were measured in a TR-FRET reader, e.g. a Rubystar (BMG Labtechnologies, Offenburg, Germany) or a Viewlux (Perkin-Elmer). The ratio of the emissions at 665 nm and at 622 nm was taken as the measure for the amount of phosphorylated substrate.
In general terms: In TR-FRET formats the signal depends on donor and acceptor labels being close together.

Where [1] appears, read: TR-FRET, 2 mM ATP (high ATP), 15 min preincubation with enzyme, 30 min reaction at 22° C., read-out: MKNK1 IC50.

From US20190388425A1, “SUBSTITUTED IMIDAZOPYRIDINPYRIMIDINES” (Bayer Pharma Aktiengesellschaft, priority 2017, published 2019) come the findings set out here.

Like-named read-outs stand apart in the source and are kept apart here. Where only a bound is given, the exact number is not on record here.

T1 sequence (Q9BUB5 1-424 isoform Q9BUB5-2 T344D): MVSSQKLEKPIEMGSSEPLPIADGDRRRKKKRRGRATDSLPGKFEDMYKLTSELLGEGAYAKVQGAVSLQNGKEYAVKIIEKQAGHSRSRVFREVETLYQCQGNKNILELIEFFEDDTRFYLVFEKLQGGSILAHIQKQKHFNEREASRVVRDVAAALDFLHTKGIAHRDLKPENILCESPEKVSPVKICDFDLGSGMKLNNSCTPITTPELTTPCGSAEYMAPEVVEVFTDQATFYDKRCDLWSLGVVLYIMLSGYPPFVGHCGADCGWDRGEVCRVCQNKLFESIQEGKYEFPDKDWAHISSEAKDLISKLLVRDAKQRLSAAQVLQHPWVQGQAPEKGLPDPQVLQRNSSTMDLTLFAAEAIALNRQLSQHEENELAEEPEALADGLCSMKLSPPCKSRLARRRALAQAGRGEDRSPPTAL

`CNC(=O)[C@H]1CCc2c(sc3ncnc(Nc4cc(C)c5n(c4=O)C4(CCCCC4)NC5=O)c23)C1` [Example 4, (7S)—N-Methyl-4-[(8′-methyl-1′,5′-dioxo-1′,5′-dihydro-2′H-spiro[cyclohexane-1,3′-imidazo[1,5-a]pyridin]-6′-yl)amino]-5,6,7,8-tetrahydro[1]benzothieno[2,3-d]pyrimidine-7-carboxamide]: under setting [1], the IC50 (as a rule, the point on the concentration scale where inhibition reaches its midpoint) stood at 0.4 nM.
Still for that read-out and setting: as for `O=C1NC2(CCCC2)n2c1c(Cl)cc(Nc1ncnc3sc4c(c13)CC[C@H](C(=O)N1CCC1)C4)c2=O` [Example 87, 6′-{[(7S)-7-(Azetidine-1-carbonyl)-5,6,7,8-tetrahydro[1]benzothieno[2,3-d]pyrimidin-4-yl]amino}-8′-chloro-2′H-spiro[cyclopentane-1,3′-imidazo[1,5-a]pyridine]-1′,5′-dione], the figure is 0.2 nM.
`Cc1cc(Nc2ncnc3sc4c(c23)CC[C@H](C(=O)N2CC(C#N)C2)C4)c(=O)n2c1C(=O)NC21CS(=O)(=O)C1` [Example 68, 1-({(7S)-4-[(8-Methyl-1′,1′-dioxido-1,5-dioxo-1,5-dihydro-2H-spiro[imidazo[1,5-a]pyridine-3,3′-thietan]-6-yl)amino]-5,6,7,8-tetrahydro[1]benzothieno[2,3-d]pyrimidin-7-yl}carbonyl)azetidine-3-carbonitrile]: the IC50 under setting [1] worked out at 2.5 nM.
On the same count and under the same terms, as for `Cc1cc(Nc2ncnc3sc4c(c23)CC[C@H](C(=O)N2CC[C@H](N(C)C)C2)C4)c(=O)n2c1C(=O)NC21CCCC1` [Example 41, 6′-{[(7S)-7-{[(3S)-3-(Dimethylamino)pyrrolidin-1-yl]carbonyl}-5,6,7,8-tetrahydro[1]benzothieno[2,3-d]pyrimidin-4-yl]amino}-8′-methyl-2′H-spiro[cyclopentane-1,3′-imidazo[1,5-a]pyridine]-1′,5′-dione], the figure is 1.2 nM.
Still for that read-out and setting: the figure for `O=C1NC2(CSC2)n2c1c(Cl)cc(Nc1ncnc3sc4c(c13)CC[C@H](C(=O)N1C[C@H]3C[C@@H]1CO3)C4)c2=O` [Example 108, 8-Chloro-6-({(7S)-7-[(1R,4R)-2-oxa-5-azabicyclo[2.2.1]heptane-5-carbonyl]-5,6,7,8-tetrahydro[1]benzothieno[2,3-d]pyrimidin-4-yl}amino)-2H-spiro[imidazo[1,5-a]pyridine-3,3′-thietane]-1,5-dione] is 0.8 nM; for `CN(C)[C@H]1CCN(C(=O)[C@H]2CCc3c(sc4ncnc(Nc5cc(Cl)c6n(c5=O)C5(CCCCC5)NC6=O)c34)C2)C1` [Example 78, 8′-Chloro-6′-{[(7S)-7-{[(3S)-3-(dimethylamino)pyrrolidin-1-yl]carbonyl}-5,6,7,8-tetrahydro[1]benzothieno[2,3-d]pyrimidin-4-yl]amino}-2′H-spiro[cyclohexane-1,3′-imidazo[1,5-a]pyridine]-1′,5′-dione] it is 4.8 nM; for `Cc1cc(Nc2ncnc3sc4c(c23)CC[C@H](C(=O)N2CC(C#N)C2)C4)c(=O)n2c1C(=O)NC21CCC1` [Example 22, 1-({(7S)-4-[(8′-Methyl-1′,5′-dioxo-1′,5′-dihydro-2′H-spiro[cyclobutane-1,3′-imidazo[1,5-a]pyridin]-6′-yl)amino]-5,6,7,8-tetrahydro[1]benzothieno[2,3-d]pyrimidin-7-yl}carbonyl)azetidine-3-carbonitrile] it is 0.5 nM.
For `O=C1NC2(CCCCC2)n2c1c(Cl)cc(Nc1ncnc3sc4c(c13)CC[C@H](C(=O)N1C[C@H]3C[C@@H]1CO3)C4)c2=O` [Example 81, 8′-Chloro-6′-({(7S)-7-[(1R,4R)-2-oxa-5-azabicyclo[2.2.1]hept-5-ylcarbonyl]-5,6,7,8-tetrahydro[1]benzothieno[2,3-d]pyrimidin-4-yl}amino)-2′H-spiro[cyclohexane-1,3′-imidazo[1,5-a]pyridine]-1′,5′-dione], the IC50 under setting [1] was 0.3 nM.
Regarding `C[C@@H]1CN(C(=O)[C@H]2CCc3c(sc4ncnc(Nc5cc(Cl)c6n(c5=O)C5(CCCC5)NC6=O)c34)C2)CCN1C` [Example 91, 8′-Chloro-6′-({(7S)-7-[(3R)-3,4-dimethylpiperazine-1-carbonyl]-5,6,7,8-tetrahydro[1]benzothieno[2,3-d]pyrimidin-4-yl}amino)-2′H-spiro[cyclopentane-1,3′-imidazo[1,5-a]pyridine]-1′,5′-dione], the IC50 under setting [1] was < 0.1 nM.
`Cc1cc(Nc2ncnc3sc4c(c23)CC[C@H](C(=O)N2C[C@H]3C[C@@H]2CO3)C4)c(=O)n2c1C(=O)NC21CSC1` [Example 51, 8-Methyl-6-({(7S)-7-[(1R,4R)-2-oxa-5-azabicyclo[2.2.1]hept-5-ylcarbonyl]-5,6,7,8-tetrahydro[1]benzothieno[2,3-d]pyrimidin-4-yl}amino)-2H-spiro[imidazo[1,5-a]pyridine-3,3′-thietane]-1,5-dione]: the IC50 under setting [1] worked out at 0.4 nM.
Same read-out and setting: as for `CC1(C)NC(=O)c2c(Cl)cc(Nc3ncnc4sc5c(c34)CC[C@H](C(=O)N3CC(C#N)C3)C5)c(=O)n21` [Example 113, 1-{(7S)-4-[(8-Chloro-3,3-dimethyl-1,5-dioxo-1,2,3,5-tetrahydroimidazo[1,5-a]pyridin-6-yl)amino]-5,6,7,8-tetrahydro[1]benzothieno[2,3-d]pyrimidine-7-carbonyl}azetidine-3-carbonitrile], the figure is 0.2 nM; as for `Cc1cc(Nc2ncnc3sc4c(c23)CC[C@H](C(=O)N2CCC2)C4)c(=O)n2c1C(=O)NC21CCC1` [Example 21, 6′-{[(7S)-7-(Azetidin-1-ylcarbonyl)-5,6,7,8-tetrahydro[1]benzothieno[2,3-d]pyrimidin-4-yl]amino}-8′-methyl-2′H-spiro[cyclobutane-1,3′-imidazo[1,5-a]pyridine]-1′,5′-dione], 0.6 nM; as for `Cc1cc(Nc2ncnc3sc4c(c23)CC[C@H](C(=O)N2CCC2)C4)c(=O)n2c1C(=O)NC21CSC1` [Example 46, 6-{[(7S)-7-(Azetidin-1-ylcarbonyl)-5,6,7,8-tetrahydro[1]benzothieno[2,3-d]pyrimidin-4-yl]amino}-8-methyl-2H-spiro[imidazo[1,5-a]pyridine-3,3′-thietane]-1,5-dione], 0.6 nM.
Consider `Cc1cc(Nc2ncnc3sc4c(c23)CC[C@H](C(=O)N(C)C)C4)c(=O)n2c1C(=O)NC2(C)C` [Example 27, (7S)—N,N-Dimethyl-4-[(3,3,8-trimethyl-1,5-dioxo-1,2,3,5-tetrahydroimidazo[1,5-a]pyridin-6-yl)amino]-5,6,7,8-tetrahydro[1]benzothieno[2,3-d]pyrimidine-7-carboxamide], for which the IC50 under setting [1] worked out at 2 nM.
On the same count and under the same terms, the figure for `Cc1cc(Nc2ncnc3sc4c(c23)CC[C@H](C(=O)O)C4)c(=O)n2c1C(=O)NC2(C)C` [Example 15, (7S)-4-[(3,3,8-Trimethyl-1,5-dioxo-1,2,3,5-tetrahydroimidazo[1,5-a]pyridin-6-yl)amino]-5,6,7,8-tetrahydro[1]benzothieno[2,3-d]pyrimidine-7-carboxylic acid] is 15.6 nM; for `O=C1NC2(CCC2)n2c1c(Cl)cc(Nc1ncnc3sc4c(c13)CC[C@H](C(=O)N1CCC1)C4)c2=O` [Example 96, 6′-{[(7S)-7-(Azetidine-1-carbonyl)-5,6,7,8-tetrahydro[1]benzothieno[2,3-d]pyrimidin-4-yl]amino}-8′-chloro-2′H-spiro[cyclobutane-1,3′-imidazo[1,5-a]pyridine]-1′,5′-dione] it is 0.1 nM; for `C[C@@H]1CN(C(=O)[C@H]2CCc3c(sc4ncnc(Nc5cc(Cl)c6n(c5=O)C(C)(C)NC6=O)c34)C2)CCN1C` [Example 115, 8-Chloro-6-({(7S)-7-[(3R)-3,4-dimethylpiperazine-1-carbonyl]-5,6,7,8-tetrahydro[1]benzothieno[2,3-d]pyrimidin-4-yl}amino)-3,3-dimethyl-2,3-dihydroimidazo[1,5-a]pyridine-1,5-dione] it is 0.2 nM.
Compound `Cc1cc(Nc2ncnc3sc4c(c23)CC[C@H](C(=O)N2CCC(=O)CC2)C4)c(=O)n2c1C(=O)NC21CCCCC1` [Example 10, 8′-Methyl-6′-({(7S)-7-[(4-oxopiperidin-1-yl)carbonyl]-5,6,7,8-tetrahydro[1]benzothieno[2,3-d]pyrimidin-4-yl}amino)-2′H-spiro[cyclohexane-1,3′-imidazo[1,5-a]pyridine]-1′,5′-dione] registered an IC50 of 0.3 nM.
